Measurements taken from ChEMBL document CHEMBL4325881, “Facile synthesis of 2-aryl 5-hydroxy benzo[d]oxazoles and their in vitro anti-proliferative effects on various cancer cell lines” (Bioorg Med Chem Lett, 2018).
pIC50: −log10 of the molar value. Active and inactive are the calls of the source. No cut-off for these calls is given here.

How the values were obtained:
HaCaT = experiment: Cytotoxicity against human HaCaT cells assessed as reduction in cell viability after 48 hrs by MTT assay; assay type: cell-based
HepG2 [1] = experiment: Cytotoxicity against human HepG2 cells assessed as reduction in cell viability after 48 hrs by MTT assay; assay type: functional, cell-based; conditions: HepG2, 48 h
A549 = experiment: Cytotoxicity against human A549 cells assessed as reduction in cell viability after 48 hrs by MTT assay; assay type: functional, cell-based; conditions: A549, 48 h
[2] = Cytotoxicity against human […] cells assessed as reduction in cell viability after 48 hrs by MTT assay; assay type: functional, cell-based
MDA-MB-231 = experiment: Cytotoxicity against human MDA-MB-231 cells assessed as reduction in cell viability after 48 hrs by MTT assay; assay type: functional, cell-based; conditions: MDA-MB-231, 48 h
HeLa = experiment: Cytotoxicity against human HeLa cells assessed as reduction in cell viability after 48 hrs by MTT assay; assay type: functional, cell-based
HepG2 [3] = experiment: Cell cycle arrest in human HepG2 cells assessed as accumulation at G2/M phase at 2.5 uM after 24 hrs by propidium iodide staining based flow cytometric analysis (reference value: 28.79%); assay type: functional
HepG2 [4] = experiment: Induction of apoptosis in human HepG2 cells assessed as late apoptotic cells at 0.5 uM after 48 hrs by annexin V-FITC/propidium iodide staining-based flow cytometry analysis (reference value: 0.26%); assay type: functional
HepG2 [5] = experiment: Induction of ROS accumulation in human HepG2 cells after 48 hrs by DCF-DA staining based fluorescence microscopic analysis; assay type: functional, cell-based
HepG2 [6] = experiment: Induction of apoptosis in human HepG2 cells assessed as late apoptotic cells at 1 uM after 48 hrs by annexin V-FITC/propidium iodide staining-based flow cytometry analysis (reference value: 0.26%); assay type: functional
HepG2 [7] = experiment: Cell cycle arrest in human HepG2 cells assessed as accumulation at S phase at 1 uM after 24 hrs by propidium iodide staining based flow cytometric analysis (reference value: 7.57%); assay type: functional
HepG2 [8] = experiment: Cell cycle arrest in human HepG2 cells assessed as accumulation at G2/M phase at 0.5 uM after 24 hrs by propidium iodide staining based flow cytometric analysis (reference value: 28.79%); assay type: functional
HepG2 [9] = experiment: Induction of apoptosis in human HepG2 cells assessed as viable cells at 2.5 uM after 48 hrs by annexin V-FITC/propidium iodide staining-based flow cytometry analysis (reference value: 98.14%); assay type: functional; conditions: HepG2, 48 h, read-out: Activity
HepG2 [10] = experiment: Cell cycle arrest in human HepG2 cells assessed as accumulation at S phase at 2.5 uM after 24 hrs by propidium iodide staining based flow cytometric analysis (reference value: 7.57%); assay type: functional
HepG2 [11] = experiment: Induction of apoptosis in human HepG2 cells assessed as mitochondrial depolarized cells level at 0.5 uM after 48 hrs by JC-1 staining based flow cytometric method (reference value: […]); assay type: functional
HepG2 [12] = experiment: Induction of apoptosis in human HepG2 cells assessed as necrotic cells at 1 uM after 48 hrs by annexin V-FITC/propidium iodide staining-based flow cytometry analysis (reference value: 0.62%); assay type: functional
HepG2 [13] = experiment: Induction of apoptosis in human HepG2 cells assessed as early apoptotic cells at 1 uM after 48 hrs by annexin V-FITC/propidium iodide staining-based flow cytometry analysis (reference value: 0.98%); assay type: functional
HepG2 [14] = experiment: Cell cycle arrest in human HepG2 cells assessed as accumulation at sub-G1 phase at 1 uM after 24 hrs by propidium iodide staining based flow cytometric analysis (reference value: 1.73%); assay type: functional
HepG2 [15] = experiment: Induction of apoptosis in human HepG2 cells assessed as viable cells at 1 uM after 48 hrs by annexin V-FITC/propidium iodide staining-based flow cytometry analysis (reference value: 98.14%); assay type: functional; conditions: HepG2, 48 h, read-out: Activity
HepG2 [16] = experiment: Cell cycle arrest in human HepG2 cells assessed as accumulation at G2/M phase at 1 uM after 24 hrs by propidium iodide staining based flow cytometric analysis (reference value: 28.79%); assay type: functional
HepG2 [17] = experiment: Induction of apoptosis in human HepG2 cells assessed as viable cells at 0.5 uM after 48 hrs by annexin V-FITC/propidium iodide staining-based flow cytometry analysis (reference value: 98.14%); assay type: functional; conditions: HepG2, 48 h, read-out: Activity
HepG2 [18] = experiment: Induction of apoptosis in human HepG2 cells assessed as reduction in number of viable cells at 0.5 to 2.5 uM after 48 hrs by inverted phase contrast microscopic analysis; assay type: functional, cell-based
HepG2 [19] = experiment: Induction of apoptosis in human HepG2 cells assessed as apoptotic body formation after 48 hrs by acridine orange/ethidium bromide staining-based fluorescence microscopic analysis; assay type: functional, cell-based
HepG2 [20] = experiment: Cell cycle arrest in human HepG2 cells assessed as accumulation at S phase at 0.5 uM after 24 hrs by propidium iodide staining based flow cytometric analysis (reference value: 7.57%); assay type: functional
HepG2 [21] = experiment: Cell cycle arrest in human HepG2 cells assessed as accumulation at sub-G1 phase at 0.5 uM after 24 hrs by propidium iodide staining based flow cytometric analysis (reference value: 1.73%); assay type: functional
HepG2 [22] = experiment: Cell cycle arrest in human HepG2 cells assessed as accumulation at sub-G1 phase at 2.5 uM after 24 hrs by propidium iodide staining based flow cytometric analysis (reference value: 1.73%); assay type: functional
HepG2 [23] = experiment: Induction of apoptosis in human HepG2 cells assessed as mitochondrial polarized cells level at 1 uM after 48 hrs by JC-1 staining based flow cytometric method (reference value: 93.02%); assay type: functional
HepG2 [24] = experiment: Induction of apoptosis in human HepG2 cells assessed as mitochondrial polarized cells level at 2.5 uM after 48 hrs by JC-1 staining based flow cytometric method (reference value: 93.02%); assay type: functional
HepG2 [25] = experiment: Induction of apoptosis in human HepG2 cells assessed as membrane blebbing after 48 hrs by acridine orange/ethidium bromide staining-based fluorescence microscopic analysis; assay type: functional, cell-based
HepG2 [26] = experiment: Induction of apoptosis in human HepG2 cells assessed as necrotic cells at 0.5 uM after 48 hrs by annexin V-FITC/propidium iodide staining-based flow cytometry analysis (reference value: 0.62%); assay type: functional
HepG2 [27] = experiment: Induction of apoptosis in human HepG2 cells assessed as mitochondrial polarized cells level at 0.5 uM after 48 hrs by JC-1 staining based flow cytometric method (reference value: 93.02%); assay type: functional
HepG2 [28] = experiment: Induction of apoptosis in human HepG2 cells assessed as mitochondrial depolarized cells level at 1 uM after 48 hrs by JC-1 staining based flow cytometric method (reference value: […]); assay type: functional
HepG2 [29] = experiment: Cell cycle arrest in human HepG2 cells assessed as accumulation at G0/G1 phase at 2.5 uM after 24 hrs by propidium iodide staining based flow cytometric analysis (reference value: 49.93%); assay type: functional
HepG2 [30] = experiment: Cell cycle arrest in human HepG2 cells assessed as accumulation at G0/G1 phase at 1 uM after 24 hrs by propidium iodide staining based flow cytometric analysis (reference value: 49.93%); assay type: functional
HepG2 [31] = experiment: Induction of apoptosis in human HepG2 cells assessed as mitochondrial depolarized cells level at 2.5 uM after 48 hrs by JC-1 staining based flow cytometric method (reference value: […]); assay type: functional
HepG2 [32] = experiment: Induction of apoptosis in human HepG2 cells assessed as fragmented nuclei at 0.5 to 2.5 uM after 48 hrs by DAPI staining-based fluorescence microscopic analysis; assay type: functional, cell-based
HepG2 [33] = experiment: Induction of apoptosis in human HepG2 cells assessed as chromatin condensation after 48 hrs by acridine orange/ethidium bromide staining-based fluorescence microscopic analysis; assay type: functional, cell-based
HepG2 [34] = experiment: Induction of apoptosis in human HepG2 cells assessed as condensed nuclei at 0.5 to 2.5 uM after 48 hrs by DAPI staining-based fluorescence microscopic analysis; assay type: functional, cell-based
HepG2 [35] = experiment: Induction of apoptosis in human HepG2 cells assessed as cell shrinkage at 0.5 to 2.5 uM after 48 hrs by inverted phase contrast microscopic analysis; assay type: functional, cell-based
HepG2 [36] = experiment: Induction of apoptosis in human HepG2 cells assessed as horse-shoe shaped nuclei at 0.5 to 2.5 uM after 48 hrs by DAPI staining-based fluorescence microscopic analysis; assay type: functional, cell-based
HepG2 [37] = experiment: Induction of apoptosis in human HepG2 cells assessed as late apoptotic cells at 2.5 uM after 48 hrs by annexin V-FITC/propidium iodide staining-based flow cytometry analysis (reference value: 0.26%); assay type: functional
HepG2 [38] = experiment: Induction of apoptosis in human HepG2 cells assessed as cell shrinkage after 48 hrs by acridine orange/ethidium bromide staining-based fluorescence microscopic analysis; assay type: functional
HepG2 [39] = experiment: Induction of apoptosis in human HepG2 cells assessed as increase in loss of mitochondrial membrane potential after 48 hrs by JC-1 staining based flow cytometric method; assay type: functional, cell-based
HepG2 [40] = experiment: Induction of apoptosis in human HepG2 cells after 48 hrs by annexin V-FITC/propidium iodide staining-based flow cytometry analysis; assay type: functional, cell-based
HepG2 [41] = experiment: Induction of apoptosis in human HepG2 cells assessed as early apoptotic cells at 2.5 uM after 48 hrs by annexin V-FITC/propidium iodide staining-based flow cytometry analysis (reference value: 0.98%); assay type: functional
HepG2 [42] = experiment: Induction of apoptosis in human HepG2 cells assessed as early apoptotic cells at 0.5 uM after 48 hrs by annexin V-FITC/propidium iodide staining-based flow cytometry analysis (reference value: 0.98%); assay type: functional
HepG2 [43] = experiment: Induction of apoptosis in human HepG2 cells assessed as necrotic cells at 2.5 uM after 48 hrs by annexin V-FITC/propidium iodide staining-based flow cytometry analysis (reference value: 0.62%); assay type: functional
HepG2 [44] = experiment: Anticlonogenic activity against human HepG2 cells incubated for 24 hrs followed by fresh media replacement and measured after 12 days by crystal violet staining based assay; assay type: functional, cell-based
HepG2 [45] = experiment: Induction of apoptosis in human HepG2 cells assessed as […] deformation at 0.5 to 2.5 uM after 48 hrs by inverted phase contrast microscopic analysis; assay type: functional, cell-based
HepG2 [46] = experiment: Cell cycle arrest in human HepG2 cells assessed as accumulation at G0/G1 phase at 0.5 uM after 24 hrs by propidium iodide staining based flow cytometric analysis (reference value: 49.93%); assay type: functional

COc1ccccc1-c1nc2c(C=O)c(O)ccc2o1
pIC50 (HaCaT): 5.08
pIC50 (HepG2 [1]): 4.97
pIC50 (A549): 5.55
pIC50 [2]: 4.98
pIC50 (MDA-MB-231): 5.23
pIC50 (HeLa): 5.09

Cc1ccccc1-c1nc2c(C=O)c(O)ccc2o1
pIC50 (HaCaT): 4.91
pIC50 (HepG2 [1]): 5.32
pIC50 (A549): 5.66
pIC50 [2]: 5.01
pIC50 (MDA-MB-231): 5.27
pIC50 (HeLa): 4.81

COc1cc(OC)cc(-c2nc3c(C=O)c(O)ccc3o2)c1
pIC50 (HaCaT): 4.75
pIC50 (HepG2 [1]): 4.67
pIC50 (A549): 4.52
pIC50 [2]: 4.52
pIC50 (MDA-MB-231): 4.47
pIC50 (HeLa): 4.60

O=Cc1c(O)ccc2oc(-c3cccc(Cl)c3)nc12
Activity (HepG2 [3]): 22.57%
Activity (HepG2 [4]): 0.75%
Activity (HepG2 [5]): Dose-dependent effect
Activity (HepG2 [6]): 0.55%
Activity (HepG2 [7]): 5.53%
pIC50 (HaCaT): 4.75
Activity (HepG2 [8]): 23.05%
viability at 2.5 µM (HepG2 [9]): 40.2%
Activity (HepG2 [10]): 8.32%
Activity (HepG2 [11]): 14.91%
Activity (HepG2 [12]): 1.84%
Activity (HepG2 [13]): 34.2%
Activity (HepG2 [14]): 5.64%
viability at 1 µM (HepG2 [15]): 63.4%
Activity (HepG2 [16]): 27.15%
viability at 0.5 µM (HepG2 [17]): 83.3%
Activity (HepG2 [18]): Active
Activity (HepG2 [19]): Dose-dependent effect
Activity (HepG2 [20]): 6.61%
Activity (HepG2 [21]): 2.42%
Activity (HepG2 [22]): 13.2%
Activity (HepG2 [23]): 74.54%
Activity (HepG2 [24]): 29.19%
Activity (HepG2 [25]): Dose-dependent effect
Activity (HepG2 [26]): 2.42%
Activity (HepG2 [27]): 85.46%
pIC50 (HepG2 [1]): 6.09
Activity (HepG2 [28]): 25.87%
Activity (HepG2 [29]): 45.52%
Activity (HepG2 [30]): 50.36%
pIC50 (A549): 5.73
Activity (HepG2 [31]): 71.49%
Activity (HepG2 [32]): Active
Activity (HepG2 [33]): Dose-dependent effect
pIC50 [2]: 6.01
pIC50 (MDA-MB-231): 5.88
Activity (HepG2 [34]): Active
Activity (HepG2 [35]): Active
Activity (HepG2 [36]): Active
Activity (HepG2 [37]): 1.64%
Activity (HepG2 [38]): Dose-dependent effect
Activity (HepG2 [39]): Dose-dependent effect
Activity (HepG2 [40]): Dose-dependent effect
pIC50 (HeLa): 5.66
Activity (HepG2 [41]): 56.17%
Activity (HepG2 [42]): 12.5%
Activity (HepG2 [43]): 2.01%
Activity (HepG2 [44]): Dose-dependent effect
Activity (HepG2 [45]): Active
Activity (HepG2 [46]): 59.01%

O=Cc1c(O)ccc2oc(-c3ccco3)nc12
pIC50 (HaCaT): < 4.52
pIC50 (HepG2 [1]): < 4.52
pIC50 (A549): < 4.52
pIC50 [2]: < 4.52
pIC50 (MDA-MB-231): < 4.52
pIC50 (HeLa): < 4.52

O=Cc1c(O)ccc2oc(-c3cccc4ccccc34)nc12
pIC50 (HaCaT): 4.97
pIC50 (HepG2 [1]): 4.56
pIC50 (A549): 4.55
pIC50 [2]: 4.67
pIC50 (MDA-MB-231): 4.51
pIC50 (HeLa): 4.52
